Data taken from patent publication US10004701B2, “Methods and compositions for treating infection” (UNIVERSITY OF ROCHESTER, priority 2012, dated 2018).
Structures can show the parent of a compound that is named as a salt. Where two headings read alike, the source gives them in different places.

Legend:
Assay in all cases: AK assay 384-well format, Prestwick library screening
E. faecium = type: cell-based, Enterococcus faecium; settings: 50 μM final drug concentration, cutoff for positive-scoring molecules 3-fold increase; for fold induction at 50 µM: Enterococcus faecium, 3 h
[1] = test system: A. baumannii strain 98-37-09; type: cell-based, Acinetobacter baumannii; settings: 50 μM final drug concentration, cutoff for positive-scoring molecules 3-fold increase; for fold induction at 50 µM: Acinetobacter baumannii, 983709, 3 h
E. coli = type: cell-based, Escherichia coli; settings: 50 μM final drug concentration; for fold induction at 50 µM: Escherichia coli, 3 h
K. pneumoniae = type: cell-based, Klebsiella pneumoniae; settings: 50 μM final drug concentration, cutoff for positive-scoring molecules 3-fold increase; for fold induction at 50 µM: Klebsiella pneumoniae, 3 h
E. cloacae = type: cell-based, Enterobacter cloacae; settings: 50 μM final drug concentration, cutoff for positive-scoring molecules 3-fold increase; for fold induction at 50 µM: Enterobacter cloacae, 3 h
P. aeruginosa = type: cell-based, Pseudomonas aeruginosa; settings: 50 μM final drug concentration, cutoff for positive-scoring molecules 3-fold increase; for fold induction at 50 µM: Pseudomonas aeruginosa, 3 h
[2] = test system: S. aureus strain USA300-0114; type: cell-based, Staphylococcus aureus; settings: 50 μM final drug concentration, cutoff for positive-scoring molecules 3-fold increase; for fold induction at 50 µM: Staphylococcus aureus, USA300, 3 h
[3] = read-out: AK-based Prestwick Library Screening Results, E. faecium (fold increase in extracellular AK activity)
[4] = read-out: AK-based Prestwick Library Screening Results, A. baumannii (fold increase in extracellular AK activity)
[5] = cutoff for positive-scoring molecules 3-fold increase, read-out: AK-based Prestwick Library Screening Results, E. coli (fold increase in extracellular AK activity)
[6] = read-out: AK-based Prestwick Library Screening Results, K. pneumoniae (fold increase in extracellular AK activity)
[7] = read-out: AK-based Prestwick Library Screening Results, E. cloacae (fold increase in extracellular AK activity)
[8] = read-out: AK-based Prestwick Library Screening Results, P. aeruginosa (fold increase in extracellular AK activity)
[9] = read-out: AK-based Prestwick Library Screening Results, S. aureus (fold increase in extracellular AK activity)
[10] = planktonic, read-out: AK-based Prestwick Library Screening Results, E. faecium (fold increase in extracellular AK activity)
[11] = planktonic, read-out: AK-based Prestwick Library Screening Results, A. baumannii (fold increase in extracellular AK activity)
[12] = planktonic, cutoff for positive-scoring molecules 3-fold increase, read-out: AK-based Prestwick Library Screening Results, E. coli (fold increase in extracellular AK activity)
[13] = planktonic, read-out: AK-based Prestwick Library Screening Results, K. pneumoniae (fold increase in extracellular AK activity)
[14] = planktonic, read-out: AK-based Prestwick Library Screening Results, E. cloacae (fold increase in extracellular AK activity)
[15] = planktonic, read-out: AK-based Prestwick Library Screening Results, P. aeruginosa (fold increase in extracellular AK activity)
[16] = planktonic, read-out: AK-based Prestwick Library Screening Results, S. aureus (fold increase in extracellular AK activity)
[17] = 384-well format, read-out: AK-based Prestwick Library Screening Results, E. faecium (increase in extracellular AK activity)
[18] = 384-well format, read-out: AK-based Prestwick Library Screening Results, A. baumannii (increase in extracellular AK activity)
[19] = 384-well format, cutoff for positive-scoring molecules 3-fold increase, read-out: AK-based Prestwick Library Screening Results, E. coli (increase in extracellular AK activity)
[20] = 384-well format, read-out: AK-based Prestwick Library Screening Results, K. pneumoniae (increase in extracellular AK activity)
[21] = 384-well format, read-out: AK-based Prestwick Library Screening Results, E. cloacae (increase in extracellular AK activity)
[22] = 384-well format, read-out: AK-based Prestwick Library Screening Results, P. aeruginosa (increase in extracellular AK activity)
[23] = 384-well format, read-out: AK-based Prestwick Library Screening Results, S. aureus (increase in extracellular AK activity)

## CCC[C@@H]1C[C@@H](C(=O)N[C@@H]([C@H]2O[C@H](SC)[C@H](O)[C@@H](O)[C@H]2O)[C@@H](C)O)N(C)C1 [Lincomycin hydrochloride]
E. faecium; planktonic E. faecium, 384-well, read-out: AK-based Prestwick Library Screening Results: E. faecium (increase in extracellular AK activity)
  fold induction at 50 µM: 1.3
[1]; planktonic A. baumannii, 384-well, read-out: AK-based Prestwick Library Screening Results: A. baumannii (increase in extracellular AK activity)
  fold induction at 50 µM: 1.2
E. coli; planktonic E. coli, 384-well, cutoff for positive-scoring molecules 3-fold increase, read-out: AK-based Prestwick Library Screening Results: E. coli (increase in extracellular AK activity)
  fold induction at 50 µM: 0.9
K. pneumoniae; planktonic K. pneumoniae, 384-well, read-out: AK-based Prestwick Library Screening Results: K. pneumoniae (increase in extracellular AK activity)
  fold induction at 50 µM: 0.9
E. cloacae; planktonic E. cloacae, 384-well, read-out: AK-based Prestwick Library Screening Results: E. cloacae (increase in extracellular AK activity)
  fold induction at 50 µM: 1.3
P. aeruginosa; planktonic P. aeruginosa, 384-well, read-out: AK-based Prestwick Library Screening Results: P. aeruginosa (increase in extracellular AK activity)
  fold induction at 50 µM: 1.2
[2]; planktonic S. aureus, 384-well, read-out: AK-based Prestwick Library Screening Results: S. aureus (increase in extracellular AK activity)
  fold induction at 50 µM: 7.9

## c1ccc2c(c1)OCC(C1=NCCN1)O2 (stereo not shown) [Idazoxan hydrochloride]
E. faecium; [3]
  fold induction at 50 µM: 1
[1]; [4]
  fold induction at 50 µM: 1.1
E. coli; [5]
  fold induction at 50 µM: 1.1
K. pneumoniae; [6]
  fold induction at 50 µM: 1
E. cloacae; [7]
  fold induction at 50 µM: 1.5
P. aeruginosa; [8]
  fold induction at 50 µM: 1.2
[2]; [9]
  fold induction at 50 µM: 1.1

## Cotinine (−)
E. faecium; 384-well format
  AK-based Prestwick Library Screening Results, E. faecium (increase in extracellular AK activity): 0.8
[1]; 384-well format
  AK-based Prestwick Library Screening Results, A. baumannii (increase in extracellular AK activity): 0.3
E. coli; 384-well format, […]
  AK-based Prestwick Library Screening Results, E. coli (increase in extracellular AK activity): 0.5
K. pneumoniae; 384-well format
  AK-based Prestwick Library Screening Results, K. pneumoniae (increase in extracellular AK activity): 0.4
E. cloacae; 384-well format
  AK-based Prestwick Library Screening Results, E. cloacae (increase in extracellular AK activity): 0.3
P. aeruginosa; 384-well format
  AK-based Prestwick Library Screening Results, P. aeruginosa (increase in extracellular AK activity): 0.3
[2]; 384-well format
  AK-based Prestwick Library Screening Results, S. aureus (increase in extracellular AK activity): 0.4

## S(−)Eticlopride hydrochloride
E. faecium
  AK-based Prestwick Library Screening Results, E. faecium (fold increase in extracellular AK activity): 1.0
[1]
  AK-based Prestwick Library Screening Results, A. baumannii (fold increase in extracellular AK activity): 1.0
E. coli; cutoff for positive-scoring molecules 3-fold increase
  AK-based Prestwick Library Screening Results, E. coli (fold increase in extracellular AK activity): 0.9
K. pneumoniae
  AK-based Prestwick Library Screening Results, K. pneumoniae (fold increase in extracellular AK activity): 1.1
E. cloacae
  AK-based Prestwick Library Screening Results, E. cloacae (fold increase in extracellular AK activity): 1.8
P. aeruginosa
  AK-based Prestwick Library Screening Results, P. aeruginosa (fold increase in extracellular AK activity): 1.3
[2]
  AK-based Prestwick Library Screening Results, S. aureus (fold increase in extracellular AK activity): 1.6

## CC(C)(C)NCC(O)COc1cccc2c1CC(O)C(O)C2 (stereo not shown) [Nadolol]
E. faecium; [10]
  fold induction at 50 µM: 0.9
[1]; [11]
  fold induction at 50 µM: 0.7
E. coli; [12]
  fold induction at 50 µM: 0.8
K. pneumoniae; [13]
  fold induction at 50 µM: 0.6
E. cloacae; [14]
  fold induction at 50 µM: 0.8
P. aeruginosa; [15]
  fold induction at 50 µM: 0.6
[2]; [16]
  fold induction at 50 µM: 0.7

## Cc1ncc([N+](=O)[O-])n1CC(O)CCl (stereo not shown) [Ornidazole]
E. faecium; [17]
  fold induction at 50 µM: 0.9
[1]; [18]
  fold induction at 50 µM: 0.6
E. coli; [19]
  fold induction at 50 µM: 0.6
K. pneumoniae; [20]
  fold induction at 50 µM: 0.5
E. cloacae; [21]
  fold induction at 50 µM: 0.6
P. aeruginosa; [22]
  fold induction at 50 µM: 0.6
[2]; [23]
  fold induction at 50 µM: 0.5

## CC(C)NCC(O)c1cc(O)cc(O)c1.CC(C)NCC(O)c1cc(O)cc(O)c1.O=S(=O)(O)O (stereo not shown)
E. faecium; planktonic E. faecium
  AK-based Prestwick Library Screening Results, E. faecium (increase in extracellular AK activity): 0.9
[1]; planktonic A. baumannii
  AK-based Prestwick Library Screening Results, A. baumannii (increase in extracellular AK activity): 0.9
E. coli; planktonic E. coli, cutoff for positive-scoring molecules 3-fold increase
  AK-based Prestwick Library Screening Results, E. coli (increase in extracellular AK activity): 1.0
K. pneumoniae; planktonic K. pneumoniae
  AK-based Prestwick Library Screening Results, K. pneumoniae (increase in extracellular AK activity): 0.7
E. cloacae; planktonic E. cloacae
  AK-based Prestwick Library Screening Results, E. cloacae (increase in extracellular AK activity): 1.0
P. aeruginosa; planktonic P. aeruginosa
  AK-based Prestwick Library Screening Results, P. aeruginosa (increase in extracellular AK activity): 0.9
[2]; planktonic S. aureus
  AK-based Prestwick Library Screening Results, S. aureus (increase in extracellular AK activity): 0.6

## NC(N)=NCCCCN=C(N)N [Arcaine sulfate]
E. faecium; [3]
  fold induction at 50 µM: 0.6
[1]; [4]
  fold induction at 50 µM: 0.8
E. coli; [5]
  fold induction at 50 µM: 0.7
K. pneumoniae; [6]
  fold induction at 50 µM: 0.7
E. cloacae; [7]
  fold induction at 50 µM: 1.2
P. aeruginosa; [8]
  fold induction at 50 µM: 0.8
[2]; [9]
  fold induction at 50 µM: 0.9

## O=C(Cn1ccnc1[N+](=O)[O-])NCCO [Etanidazole]
E. faecium; [10]
  fold induction at 50 µM: 0.8
[1]; [11]
  fold induction at 50 µM: 0.5
E. coli; [12]
  fold induction at 50 µM: 0.5
K. pneumoniae; [13]
  fold induction at 50 µM: 0.5
E. cloacae; [14]
  fold induction at 50 µM: 0.4
P. aeruginosa; [15]
  fold induction at 50 µM: 0.4
[2]; [16]
  fold induction at 50 µM: 0.4

## CC[N+]1(C)CCCC(OC(=O)C(O)(c2ccccc2)c2ccccc2)C1 (stereo not shown) [Pipenzolate bromide]
E. faecium; [10]
  fold induction at 50 µM: 0.9
[1]; [11]
  fold induction at 50 µM: 0.7
E. coli; [12]
  fold induction at 50 µM: 0.9
K. pneumoniae; [13]
  fold induction at 50 µM: 0.7
E. cloacae; [14]
  fold induction at 50 µM: 0.9
P. aeruginosa; [15]
  fold induction at 50 µM: 0.8
[2]; [16]
  fold induction at 50 µM: 0.8

## C[N+](C)(C)CCCCCCCCCC[N+](C)(C)C [Decamethonium bromide]
E. faecium; [3]
  fold induction at 50 µM: 0.9
[1]; [4]
  fold induction at 50 µM: 0.5
E. coli; [5]
  fold induction at 50 µM: 0.5
K. pneumoniae; [6]
  fold induction at 50 µM: 0.5
E. cloacae; [7]
  fold induction at 50 µM: 0.5
P. aeruginosa; [8]
  fold induction at 50 µM: 0.4
[2]; [9]
  fold induction at 50 µM: 0.4

## CCOC(=O)C1=C[C@]2(CC)CCCN3CCc4c(n1c1ccccc41)[C@@H]32 [Vinpocetine]
E. faecium; [17]
  fold induction at 50 µM: 1
[1]; [18]
  fold induction at 50 µM: 0.9
E. coli; [19]
  fold induction at 50 µM: 0.9
K. pneumoniae; [20]
  fold induction at 50 µM: 0.8
E. cloacae; [21]
  fold induction at 50 µM: 1
P. aeruginosa; [22]
  fold induction at 50 µM: 1
[2]; [23]
  fold induction at 50 µM: 0.8

## C[N+](C)(C)CCOC(N)=O [Carbachol]
E. faecium; [3]
  fold induction at 50 µM: 1.1
[1]; [4]
  fold induction at 50 µM: 1.3
E. coli; [5]
  fold induction at 50 µM: 1.2
K. pneumoniae; [6]
  fold induction at 50 µM: 1.2
E. cloacae; [7]
  fold induction at 50 µM: 1.2
P. aeruginosa; [8]
  fold induction at 50 µM: 1.2
[2]; [9]
  fold induction at 50 µM: 1.4
